# Values quoted from earlier work in US20090297625A1, “AGENT FOR TREATING EYE DISEASES” (OTKRYTOE AKTSIONERNOE OBSCHESTVO ZAVOD, priority 2006, published 2009).
# Details: administration of lutein as an additive
structure (smiles),measurement,value
CC1=C[C@H](O)CC(C)(C)[C@H]1/C=C/C(C)=C/C=C/C(C)=C/C=C/C=C(C)/C=C/C=C(C)/C=C/C1=C(C)C[C@@H](O)CC1(C)C [lutein],absorption and storage in the macula lutea,well absorbed and stored in the macula lutea
